Several values for one entry are separate records, joined by “and”; a condition that tells them apart may be missing. Identical values can stand only once.
What was measured:
[1] = system: forearm veins of patients with congestive heart failure; assay: Forearm venous capacitance by occlusion plethysmography after trimazosin (Example 2); format: in vivo, human
Method: (§1) On the day of hemodynamic studies, diuretics and other vasodilators were withheld but maintenance digitalis doses were given in order to obtain a reasonably steady hemodynamic state. Procainamide was given to the one patient who had been taking it chronically. Right heart catheterization was performed using a triple lumen Swan-Ganz catheter which was inserted percutaneously via an antecubital or femoral vein and positioned with its tip in the pulmonary artery and the proximal lumen in the right atrium [Swan, et al,. N. Engl. J. Med., 283, 447 (1970)]. A brachial artery was cannulated with a short teflon catheter inserted over an 18-guage thin walled needle. Catheters were connected to P23Db Statham pressure transducers and pressures recorded on a Hewlett-Packard multichannel physiological recorder. Transducers were positioned at the mid-chest level with the patient supine, and all measurements were made in this position. Heart rate was monitored from the electrocardiogram. Cardiac outputs were measured by the dye-dilution method using indocyanine green injected into the pulmonary artery and sampled from the brachial artery through a Gilford densitometer connected to the recorder. Forearm venous capacitance was measured by occlusion plethysmography employing a Whitney mercury-in-rubber resistance guage [Cohen, et al., Clin. Sci., 30, 267 (1966) and Mason, et al., Circulation, 32, 756 (1965)]. For this determination, the forearm was elevated and suspended in a cradle. The venous occluding cuff was inflated to 30 mm. Hg. and forearm girth allowed to equilibrate over 2-3 minutes. The change in forearm girth at this point was taken as a measure of venous capacitance.
Hemodynamic measurements were made before and at hourly intervals for 4 hours after administration of trimazosin. […] Systemic vascular resistance was calculated as the difference between means systemic arterial and right atrial pressures divided by cardiac output. Pulmonary vascular resistance was calculated as mean pulmonary arterial pressure divided by cardiac output. […]

[2] = system: patients with essential hypertension; conditions: cited from earlier work
[3] = system: patients with congestive heart failure; assay: Hemodynamic effects of oral trimazosin in congestive heart failure (Example 2); format: in vivo, human
Method: Studies were performed in male patients with clinical and radiographic evidence of congestive heart failure due to ischemic or primary cardiomyopathy. To be eligible for the study patients had to have supine systolic blood pressure of at least 100 mm. Hg. and a supine resting cardiac index below 2.5 L/min./m^2, as measured by the non-invasive carbon dioxide rebreathing method [Franciosa, et al., J. Lab. Clin. Med., 88, 662 (1976) and Franciosa, et al., Circulation, 55, 449 (1977)]. Six patients met these criteria and were selected for the study.
After obtaining written informed consent, patients were entered into a 2 day dose finding period during which single daily doses of trimazosin were given and blood pressure and heart rate monitored for 4 hours. On day one 100 mg. was given; if no response or side effects occurred, 200 mg. was given the next day. For purposes of this study a response was defined as a fall in supine blood pressure to a level equal to 0.2 × control systolic pressure +76 mm. Hg. This formula was arbitrarily chosen so that patients with control systolic blood pressure as low as 100 mm. Hg. would be included, and their pressures could be reduced to 96 mm. Hg. Upon completion to the dose finding period, no trimazosin was given for the next 24 hours to allow for washout of previous doses. After this, hemodynamic studies were performed employing the predetermined doses; if 200 mg. of trimazosin was ineffective, 300 mg. was given for hemodynamic studies.
as §1
Hemodynamic measurements were made before and at hourly intervals for 4 hours after administration of trimazosin. Pulmonary wedge pressure was taken as occluded pulmonary arterial pressure or pulmonary arterial diastolic pressure. These were not interchanged and only one was used in any given patient. Systemic vascular resistance was calculated as the difference between means systemic arterial and right atrial pressures divided by cardiac output. Pulmonary vascular resistance was calculated as mean pulmonary arterial pressure divided by cardiac output. […]

[4] = single oral doses of 50 to 150 mg.
[5] = 2 hours after trimazosin, individual patients

COc1cc2c(N)nc(N3CCN(C(=O)OCC(C)(C)O)CC3)nc2c(OC)c1OC [trimazosin, 2-hydroxy-2-methylpropyl 4-(4-amino-6,7,8-trimethoxy-2-quinazolinyl)-1-piperazinecarboxylate]
increase in forearm venous capacitance ([1]; 2 hours after trimazosin): 35% | forearm venous capacitance ([1]; 2 hours after trimazosin, before 0.83 ± 0.18): 1.12 ± 0.22 ml./100 gm. | increase in forearm venous capacitance ([1]; one patient with normal pulmonary wedge pressure): 50% | Heart Rate ([2]; hypertensives without heart failure): does not increase heart rate | blood pressure [2, 4]: significantly lower blood pressure | effect on heart rate [2, 4]: No significant effects | effect on plasma renin activity [2, 4]: No significant effects | side effect [2, 4]: Mild transient dizziness | time of peak effect [2, 4]: between one and four hours | time until effect was apparent [2, 4]: ≤ 30 min | cardiac index, patients not responding ([3]; 2 hours after trimazosin): failed to increase in 2 patients | pulmonary arterial pressures, patients responding ([3]; 2 hours after trimazosin): fell in every patient | Cardiac Index [3, 5]: 1.86 L/min./m^2 and 1.14 L/min./m^2 and 2.36 L/min./m^2 and 1.74 L/min./m^2 and 2.96 L/min./m^2 and 2.67 L/min./m^2 | Mean Pulmonary Arterial Pressure [3, 5]: 15 mm.Hg. and 39 mm.Hg. and 29 mm.Hg. and 49 mm.Hg. and 31 mm.Hg. and 40 mm.Hg. | Mean Systemic Arterial Pressure [3, 5]: 82 mm.Hg. and 78 mm.Hg. and 88 mm.Hg. and 87 mm.Hg. and 73 mm.Hg. | Pulmonary Vascular Resistance [3, 5]: 4 units and 18 units and 6 units and 15 units and 8 units | Pulmonary Wedge Pressure [3, 5]: 3 mm.Hg. and 28 mm.Hg. and 23 mm.Hg. and 37 mm.Hg. and 18 mm.Hg. and 34 mm.Hg. | Systemic Vascular Resistance [3, 5]: 23 units and 31 units and 16 units and 24 units and 15 units and 12 units | Heart Rate, mean ([3]; 2 hours after trimazosin, mean dose 183.3 mg., control 88.0, ns): 85.0 beats/min. | right atrial pressure ([3]; 2 hours after trimazosin, before 11.3 ± 2.1): 8.7 ± 1.6 mm. Hg. | Cardiac Index, mean ([3]; 2 hours after trimazosin, control 1.76, ns): 2.12 L/min./m^2 | Pulmonary Vascular Resistance, mean ([3]; 2 hours after trimazosin, control 15.8, P <0.05): 9.5 units | Systemic Vascular Resistance, mean ([3]; 2 hours after trimazosin, control 27.3, ns): 20.2 units | Pulmonary Wedge Pressure, mean ([3]; 2 hours after trimazosin, control 30.7, P <0.01): 23.8 mm.Hg. | Mean Pulmonary Arterial Pressure, mean ([3]; 2 hours after trimazosin, control 40.7, P <0.01): 33.8 mm.Hg. | Mean Systemic Arterial Pressure, mean ([3]; 2 hours after trimazosin, control 91.2, P <0.05): 82.5 mm.Hg. | pulmonary wedge pressure persistence ([3]; 4 hours after trimazosin): still significantly below control at 4 hours | Heart Rate ([3]; T = 2 hours after trimazosin (100-300 mg.), individual patients): 96 beats/min. and 84 beats/min. and 75 beats/min. and 81 beats/min. and 78 beats/min. | left ventricular function curve shift upward and leftward ([3]; after trimazosin): Only one patient failed to shift their left ventricular function curve upward and leftward | stroke volume ([3]; after trimazosin): stroke volume was increased | time of maximal increase of cardiac index ([3]; after trimazosin): 1 h | time of maximal reduction of pulmonary wedge pressure ([3]; after trimazosin): 2 h | time of peak decline of mean systemic arterial pressure ([3]; after trimazosin): 1.5 h | time of peak effects of the various hemodynamic parameters ([3]; after trimazosin): 1 to 3 h | diastolic pressure at peak effect ([3]; after trimazosin, control 74.8 ± 4.2, ns): 67.0 ± 2.9 mm. Hg. | systolic arterial pressure at peak effect ([3]; after trimazosin, control 128.3, p<0.05): 116.8 ± 9.2 mm. Hg. | heart rate change ([3]; following trimazosin): the decrease achieved statistical significance | right atrial pressure and forearm veins, patients responding ([3]; following trimazosin): Right atrial pressure fell and forearm veins dilated in every patient | right atrial pressure ([3]; one patient with normal pulmonary wedge pressure, fell from 5): 3 mm. Hg. | tachycardia ([3]; patients with congestive heart failure): did not produce tachycardia | cardiac output ([3]; patients with normal control cardiac output or normal control pulmonary wedge pressure): appeared to reduce cardiac output

Reference: patent US4130647A, “Methods for treating congestive heart failure and ischemic heart disease” (priority 1977, dated 1978)
